Measurements: US9248115B2, “Silibinin component for the treatment of hepatitis” (MADAUS GmbH, priority 2007, dated 2016)
Read-outs that look alike come from different tables or passages of the source.

Assays:
[1] = Example 3: plasma pharmacokinetics of free and total silibinin A and B after Legalon SIL infusion (HPLC-UV); type: in vivo, human; settings: for AUC(0-∞), free silibinin: 20 mg/kg iv Legalon SIL, 8 hepatitis C patients; for AUC(0-∞), free silibinin / MRT / Tmax / clearance / Vd / half-life: plasma; for MRT / Tmax / clearance / Vd / half-life: human, intravenous, 20 mg/kg; for clearance: read-out: CL, free silibinin (converted); for Vd: read-out: Vz, free silibinin; for half-life: read-out: t1/2, free silibinin (converted)
Description: An in vivo study was performed to characterize plasma concentration/time profiles of silibinin in 8 patients suffering from chronic hepatitis C who received 7 days i.v. infusion treatment with 20 mg silibinin/kg body weight (Legalon® SIL). For multiple doses of 20 mg/kg body weight, plasma concentration/time profiles and PK parameters of free and total silibinin had been observed on day 1 (=single dose conditions) and were compared with those on day 7 (=expected steady state conditions).
The study samples were analyzed using a validated HPLC-UV method. During the assay period the analytical procedure was validated by two calibration curves per analytical run.

[2] = target: T1, HCV NS5BΔ21 polymerase genotype J4 (1b) (Hepatitis C virus genotype 1b, UniProt O92972); experiment: Cell-free enzyme assay for HCV RdRp activity; type: biochemical
T1 construct: HCV NS5BΔ21 polymerase genotype J4 (1b)
Description: NS5B RNA-dependent RNA polymerase (RdRp) is an essential enzyme fir viral replication (cf. S. B. Hwang et al., Virology 1997, 227, 439-46). The following pure compounds were tested in a cell-free enzyme assay for the detection of HCV RdRp activity: silibinin A, silibinin B, isosilibinin A, isosilibinin B, silichristin, silidianin, and the silibinin ester silibinin-C-2″,3-bis(hydrogensuccinate) disodium (active ingredient of Legalon® SIL).
Stock solutions (100 mM) of the compounds in 100% DMSO were prepared. The concentration of DMSO in all reactions was kept constant at 5%. Target enzyme for the study was HCV NS5BΔ21 polymerase genotype J4 (1b).
The IC50 value of the silibinin ester was determined from the dose-response curve of two measurements. […] Curves were fitted to data points and IC50 values were interpolated from the resulting curves using SigmaPlot 8.0 software.

hepatitis C virus [3] = experiment: Example 2: iv silibinin co-treatment during ongoing peginterferon/ribavirin, HCV-RNA; type: in vivo, human
Description: Patients were continuously treated with 180 μg peginterferon alfa 2a and weight based ribavirin. In spite of this treatment, five patients were HCV-RNA positive after 24 weeks of therapy: Three male patients and two female patients; four patients with HCV genotype 1 and one patient with HCV genotype 3a; three patients with cirrhosis. Four patients can be regarded as naïve, whereas one patient can be regarded as […] respect to two previous therapies (24 and 48 weeks). In the course of the ongoing treatment with 180 μg peginterferon alfa 2a and weight based ribavirin, all patients were treated at least once for 14 consecutive days with 20 mg/kg/d silibinin iv. During this period, combination therapy with peginterferon/ribavirin was continued.

[4] = Serum ALT during iv silibinin monotherapy (Protocol 1); type: in vivo, human; settings: 10 mg/kg/day iv for 7 days; decreased from 162±133; p=0.004
Description: Patients first received daily 10 mg/kg silibinin (Legalon Sil®, Madaus, Köln) infused over 4 hrs for 7 consecutive days. On day 1 blood was drawn for determination of oxidative stress parameters at baseline, every 30 minutes during the infusion and 2 hours after the end of the infusion. On day 8 treatment was changed to 140 mg silymarin (Legalon®, Madaus, Köln) TID per os in combination with 180 μ[…]®; Roche, Basel) and 1-1.2 g/d ribavirin (COPEGUS®; Roche, Basel).

hepatitis C virus [5] = experiment: Protocol 1: serum HCV RNA (TaqMan PCR) in peginterferon/ribavirin nonresponders, iv silibinin for 7 days; type: in vivo, human; settings: monotherapy
Description: Patients with previous nonresponse to full dose of peginterferon/ribavirin combination therapy were selected for these studies. […] Patients were required to have a liver biopsy done within 2 years prior inclusion into this study. Standard inclusion/exclusion criteria for peginterferon/ribavirin therapy were applied. Patients first received daily 10 mg/kg silibinin (Legalon Sil®, Madaus, Köln) infused over 4 hrs for 7 consecutive days. On day 1 blood was drawn for determination of oxidative stress parameters at baseline, every 30 minutes during the infusion and 2 hours after the end of the infusion. On day 8 treatment was changed to 140 mg silymarin (Legalon®, Madaus, Köln) TID per os in combination with 180 μ[…]®; Roche, Basel) and 1-1.2 g/d ribavirin (COPEGUS®; Roche, Basel). In both protocols in case of intolerance to PEG-IFN alfa2a or ribavirin, standard dose adjustment guidelines were used. Antiviral combination therapy was given for a total of 24 weeks (with the Option to stop treatment in patients without a >2 log drop at week 12); virologic responders at week 24 were offered to continue treatment for further 48 weeks. After end of the infusion period patients were tested after weeks 2, 4, and then monthly till the end of therapy at week 24. Serum HCV RNA level was determined by the TaqMan PCR assay (Cobas […] TaqMan HCV Test; limit of detection, 15 IU/mL, Roche Diagnostics).

mouse cell line L929 = type: cell-based
Description: An in vitro study was performed to assess the cytotoxic potential of silymarin, silibinin, silibinin bis(hydrogensuccinate) disodium salt, and succinic acid by means of the XTT test using the mouse cell line L929 (cf. D. A. Scudiero et al., Cancer Res. 48, 4827-33; O, S. Weislow et al., J. Natl. Cancer Inst., 81, 577-86; N. W. Roehm et al., J. Immunol. Methods, 142). The following concentrations of the test items were tested: 9.77, 19.53, 39.06, 78.13, 156.25, 312.5, 625, 1250 μg/mL. Complete medium (RPMI 1640 containing 10% (v/v) FCS) was used as negative control. The solvent control for the test item was RPMI 1640 medium containing 10% (v/v) FCS) and 1% DMSO. The solvent control for the positive control was also RPMI 1640 medium containing 10% (v/v) FCS and 10.0% (v/v) deionized water. SDS was used as positive control. The following concentrations were applied: 3.125, 6.25, 12.5, 25, 50, 100, 125, 250 μg/mL. The incubation time was 24 hours at 37±1.5° C.

T1 sequence (O92972 2420-2989, stated change not applied): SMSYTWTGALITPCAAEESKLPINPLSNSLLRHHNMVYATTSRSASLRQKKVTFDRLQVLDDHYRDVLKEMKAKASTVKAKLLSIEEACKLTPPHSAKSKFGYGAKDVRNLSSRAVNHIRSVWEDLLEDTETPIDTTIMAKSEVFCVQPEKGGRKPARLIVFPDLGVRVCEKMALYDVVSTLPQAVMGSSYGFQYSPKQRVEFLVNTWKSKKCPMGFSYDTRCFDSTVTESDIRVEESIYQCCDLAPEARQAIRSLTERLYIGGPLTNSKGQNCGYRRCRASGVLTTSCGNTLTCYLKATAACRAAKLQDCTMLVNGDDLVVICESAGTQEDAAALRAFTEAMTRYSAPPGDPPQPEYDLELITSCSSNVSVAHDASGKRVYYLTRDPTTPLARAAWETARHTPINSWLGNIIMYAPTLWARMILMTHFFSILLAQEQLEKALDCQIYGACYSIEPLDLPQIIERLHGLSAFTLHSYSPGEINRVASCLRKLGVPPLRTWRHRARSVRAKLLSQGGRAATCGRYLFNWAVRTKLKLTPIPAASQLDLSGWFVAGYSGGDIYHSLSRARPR

COc1cc([C@H]2Oc3cc([C@H]4Oc5cc(O)cc(O)c5C(=O)[C@@H]4O)ccc3O[C@@H]2CO)ccc1O [Silibinin A]
AUC(0-tz), free silibinin ([1]; day 1): 3302 ± 1551 ng·h/mL
Cmax, free silibinin ([1]; day 1): 316 ± 108 ng/mL
HVD, free silibinin ([1]; day 1): 10.12 ± 4.29 h
AUC(0-∞), free silibinin ([1]; day 1): 3614 ± 1648 ng·h/mL
% PTF, free silibinin ([1]; day 7): 164.00 ± 45.33%
AUCss, free silibinin ([1]; day 7): 4095 ± 1942 ng·h/mL
Cav, free silibinin ([1]; day 7): 171 ± 81 ng/mL
Cmax, free silibinin ([1]; day 7): 315 ± 119 ng/mL
HVD, free silibinin ([1]; day 7): 11.87 ± 2.64 h
MRT ([1]; day 1): 8.49 ± 2.64 h
Tmax ([1]; day 1): 3.73 ± 1.22 h
clearance ([1]; day 1): 117 mL/min/kg
Vd ([1]; day 1): 51.4 ± 12.7 L/kg
half-life ([1]; day 1): 4.58 ± 1.35 h
MRT ([1]; day 7): 9.88 ± 1.86 h
clearance ([1]; day 7): 98.3 mL/min/kg
Vd ([1]; day 7): 55.3 ± 18.5 L/kg
half-life ([1]; day 7): 6.85 ± 1.29 h

COc1cc([C@@H]2Oc3cc([C@H]4Oc5cc(O)cc(O)c5C(=O)[C@@H]4O)ccc3O[C@H]2CO)ccc1O [Silibinin B]
AUC(0-tz), free silibinin ([1]; day 1): 559 ± 339 ng·h/mL
Cmax, free silibinin ([1]; day 1): 90 ± 44 ng/mL
HVD, free silibinin ([1]; day 1): 6.09 ± 2.14 h
AUC(0-∞), free silibinin ([1]; day 1): 753 ± 397 ng·h/mL
% PTF, free silibinin ([1]; day 7): 305.24 ± 80.46%
AUCss, free silibinin ([1]; day 7): 1041 ± 627 ng·h/mL
Cav, free silibinin ([1]; day 7): 43 ± 26 ng/mL
Cmax, free silibinin ([1]; day 7): 120 ± 54 ng/mL
HVD, free silibinin ([1]; day 7): 7.17 ± 1.63 h
MRT ([1]; day 1): 8.81 ± 6.12 h
Tmax ([1]; day 1): 4.03 ± 0.04 h
clearance ([1]; day 1): 747 mL/min/kg
Vd ([1]; day 1): 286 ± 164 L/kg
half-life ([1]; day 1): 5.16 ± 4.96 h
MRT ([1]; day 7): 6.27 ± 2.39 h
clearance ([1]; day 7): 447 mL/min/kg
Vd ([1]; day 7): 140 ± 49 L/kg
half-life ([1]; day 7): 4.35 ± 1.66 h

COc1cc(C2Oc3cc(C4Oc5cc(O)cc(O)c5C(=O)C4OC(=O)CCC(=O)O)ccc3OC2COC(=O)CCC(=O)O)ccc1O (stereo not drawn) [silibinin C-2′,3-bis(hydrogensuccinate)]
IC50 [2]: 47 ± 14 µM
NS5B inhibition compared with six purified constituents of silymarin ([2]; FIG. 11 vs FIG. 12): most efficient
viral load after second co-treatment, FIG. 7 patient (hepatitis C virus [3]; 20 mg/kg/day iv 14 days, permanently depressed): below the detection limit
viral load rebound after the first administration interval, FIG. 7 patient (hepatitis C virus [3]; person): about 2 IU/mL
viral load after co-treatment, FIG. 8 patient (hepatitis C virus [3]; person, 20 mg/kg/day iv 14 days after 30 weeks, from about log 4 IU/mL, permanent): below the detection limit
viral load after co-treatment, FIG. 9 patient (hepatitis C virus [3]; person, 20 mg/kg/day iv 14 days after 72 weeks): far below the detection limit
viral load after first co-treatment, FIG. 7 patient (hepatitis C virus [3]; person, 20 mg/kg/day iv 14 days from week 24, from about log 4.5 IU/mL): below the detection limit
ALT after iv monotherapy [4]: 118±107 U/1
mean log decline of HCV RNA within one week (hepatitis C virus [5]; 10 mg/kg/day iv for 7 days): 1.32±0.55 log
Serum HCV RNA at day 8 (mean±SD) (hepatitis C virus [5]; 10 mg/kg/day iv over 4 h for 7 days, baseline 6.59±0.53, 16 nonresponders, p<0.001): 5.26±0.81 log IU/ml

silymarin
calculated XTT50 value (mouse cell line L929): 35.2 µg/mL
cytotoxic potential higher than that of silibinin (mouse cell line L929): ~100%
